# Reference: US20220193047A1, “METHODS OF ENHANCING RADIOTHERAPY USING FERROPTOSIS INDUCERS AS RADIOSENSITIZERS” (THE TRUSTEES OF COLUMBIA UNIVERSITY IN THE CITY OF NEW YORK, priority 2019, published 2022)
# “Also recorded” adds a separate entry of the source.
# Legend:
# Format in all cases: cell-based
# HT-1080 cells = test: Clonogenic assay with Cs-137 gamma radiation, HT-1080; conditions: for Highest observed coefficient of Drug Interaction (CDI) in combination with IR: HT-1080; for Enhancement of radiation effect on clonogenic survival: HT-1080, cell death inducer plus radiation; for CDI with 4 Gy IR / CDI with 2 Gy IR: HT-1080 cells, CDI<1 synergy; for CDI with 2 Gy IR: inducer concentration (300 nM IKE, 20 nM RSL3, 1 nM staurosporine, 2 nM doxorubicin, 300 nM rapamycin, 100 ng/mL TNF + 20 μM Z-VAD-FMK + 300 nM birinapant)
# Procedure: 500 cells were seeded per well in 6-well plates in their respective growth media and incubated overnight. The next day, cells were co-treated with DMSO or compounds and radiation using a Gammacell 40 Caesium-137 irradiator (Theratronics). Plates were monitored every day using a light microscope for formation of colonies in the DMSO-treated wells. When colonies of >50 cells are clearly visible, the growth medium was discarded from all plates. The cells were washed with PBS, then fixed and stained with crystal violet solution (0.05% crystal violet, 1% formaldehyde, 1% methanol in PBS). Colonies were then directly visualized and counted.
# We tested their ability to prevent clonogenic growth, along with DMSO-treated controls.
# The coefficient of drug interaction (CDI), used to compute interaction between two drugs, was used to quantify synergy between cell death inducers and radiation according to the formula CDI=AB/(A×B), where AB is the surviving fraction of the combination treatment, and A and B are the surviving fractions of the individual treatments.
# [1] = test system: lipid peroxidation in HT-1080 cells; test: Lipid ROS assay by flow cytometry (C11-BODIPY); conditions: HT-1080, 24 h, 6 Gy radiation with 1 μM IKE or 50 nM RSL3; ferrostatin-1 co-treatment
# Procedure: 0.5 million cells were seeded in 10 cm dishes. The next day, they were co-treated with ferroptosis-modulating compounds and radiation and returned to the incubator. On the following day, cells were harvested in 15 ml tubes and washed twice with PBS followed by re-suspending in 500 μl of PBS containing 10 μM of BODIPY-C11 dye (Thermo Fisher Scientific, cat #D3861), and incubated at 37° C. for 30 minutes. The cells were then collected at 300× g for 5 minutes, washed with PBS three times, and subjected to the flow cytometry analysis. C6 flow cytometry system (BD Accuri cytometers) was used for the flow cytometer analysis. A minimum of 10,000 cells were analyzed per condition.
# To confirm that radiation causes lipid peroxidation in these cells, lipid peroxidation was also measured with C-11 BODIPY (581/591), a membrane-targeted lipid sensor dye. […] The resulting enhancement was reversed in both cases by also co-treating the cells with ferrostatin-1.
# [2] = test system: γH2AX foci in HT-1080 cells; test: γH2AX immunofluorescence staining; conditions: for Number of γH2AX foci: HT-1080, 30 minutes, 0 or 6 Gy, 10 μM IKE, 1 μM RSL3, 10 μM ferrostatin-1; for γH2AX foci in irradiated groups vs DMSO: HT-1080, 6 h post-treatment, 6 Gy; for γH2AX foci formation, compound alone: HT-1080, 6 h, no radiation
# Procedure: 10,000 cells were seeded on cover slips placed inside wells of 6-well plates. The next day, cells were treated with ferroptosis modulators and/or radiation, then returned to the incubator for 30 minutes or 6 hours. After the growth medium was removed, the cells were washed with PBS and fixed with 100 μl 4% paraformaldehyde per well for 10 minutes at room temperature. After three washes with PBS, cells were permeabilized with 100 μl Triton X-100 (0.1% v/v) per well for 10 minutes incubation at room temperature. Non-specific protein binding was blocked with 100 μl of BSA (1% v/v) per well for 20 minutes at room temperature. After removing excess BSA, 100 μl of primary mouse monoclonal anti-phospho histone-H2AX antibody (1:500) was added to each well for a 1-hour incubation at room temperature. Cells were washed with PBS and incubated with 100 μl of secondary antibody per well for 45 minutes at room temperature in the dark. Cells were washed with PBS and mounted on slides with one drop of Prolong anti-fade reagent with DAPI (Invitrogen) per coverslip. Slides were stored at 4° C. in the dark before analysis on a Zeiss LSM 700 confocal microscope with constant laser intensity for all analyzed samples.
# Mechanisms of the cellular lethality from radiation are thought to be mainly derived from the downstream caspase-dependent apoptosis induced by DNA damage, including complex double-strand DNA breaks (Lomax et al., 2013; Morgan and Lawrence, 2015). Therefore, it was desired to determine if ferroptosis inducers and radiation induce DNA damage or affect DNA repair. The extent of these effects of radiation was evaluated by measuring DNA damage and caspase activation in HT-1080 cells co-treated with radiation and ferroptosis inducers. […] The cells were either treated with radiation (6 Gy) or not irradiated (0 Gy) as a control.
# [3] = test system: percent tail DNA in HT-1080 cells; test: Comet assay; conditions: for DNA damage (percent tail DNA), combined with radiation: HT-1080, 6 Gy, 30 minutes or 4 hours; for DNA single strand damage (percent tail DNA), compound alone: HT-1080, 10 μM IKE or 1 μM RSL3, 30 minutes or 4 hours
# Procedure: 100,000 HT-1080 cells were seeded per well in 6-well plates and incubated overnight. On the next day, the cells were treated with ferroptosis modulators and/or radiation, then returned to the incubator for 30 minutes or 4 hours before being harvested with trypsin and counted. The comet assay was performed using the CometAssay kit (Trevigen) following the alkaline comet assay product instructions. All images were captured on a Zeiss LSM 700 confocal microscope with constant laser intensity for all analyzed samples. The fluorescent signal of each comet was analyzed using NIH ImageJ software.
# To test for other forms of DNA damage that cannot be detected by the γH2AX assay, a comet assay, which detects single strand DNA damage in addition to double strand breaks, was performed in HT-1080 cells treated under the same conditions.
Compound,"Colony formation after radiation alone (HT-1080 cells; HT-1080, 2 or 4 Gy radiation, no ferroptosis inducer)","Synergy between IKE or RSL3 and radiation in colony formation (HT-1080 cells; HT-1080, co-treatment with ferroptosis inhibitor)","Synergy between sorafenib and radiation in colony formation (HT-1080 cells; HT-1080, co-treatment with ferrostatin-1)",C-11 BODIPY fluorescence [1],Number of γH2AX foci [2],γH2AX foci in irradiated groups vs DMSO [2],"DNA damage (percent tail DNA), combined with radiation [3]",Highest observed coefficient of Drug Interaction (CDI) in combination with IR (HT-1080 cells),Enhancement of radiation effect on clonogenic survival (HT-1080 cells),CDI with 4 Gy IR (HT-1080 cells),CDI with 2 Gy IR (HT-1080 cells),"γH2AX foci formation, compound alone [2]","DNA single strand damage (percent tail DNA), compound alone [3]"
CCOC(=O)c1ccc(NC2CCCCC2)c(N)c1 [ferrostatin-1],significantly rescued colony formation; also recorded: partially rescued cell death induced by radiation alone,suppress the synergy,partially suppressible,reversed,did not affect the number of observed γH2AX foci,no differences were observed,did not observe a significant protective effect,,,,,,
"CC(C)Oc1ccc(C(=O)Cn2ccnc2)cc1-n1c(CN2CCN(C(=O)COc3ccc(Cl)cc3)CC2)nc2ccccc2c1=O [IKE, imidazole ketone erastin]",,,,significantly increased C-11 BODIPY fluorescence,did not affect the number of observed γH2AX foci,no differences were observed,no significant enhancement of DNA damage,0.17,significantly enhanced the effects of radiation,0.17,0.35,did not result in γH2AX foci formation,not detect a significant increase
"COC(=O)c1ccc([C@@H]2c3[nH]c4ccccc4c3C[C@@H](C(=O)OC)N2C(=O)CCl)cc1 [RSL3, Ras Synthetic Lethal 3]",,,,significantly increased C-11 BODIPY fluorescence,did not affect the number of observed γH2AX foci,no differences were observed,no significant enhancement of DNA damage,0.09,significantly enhanced the effects of radiation,0.09,0.27,did not result in γH2AX foci formation,not detect a significant increase
